From patent US8674136B2, “Aromatic butan-2-ol compounds and preparation and uses thereof” (Institute of Pharmacology and Toxicology Academy of …, priority 2010, dated 2014) come the findings set out here.

In brackets after ≈: the same amount, converted by molar mass. Several values for one entry are separate records, joined by “and”; a condition that tells them apart may be missing. Equal values may be shown once. Read-outs that look alike come from different tables or passages of the source. A value given as a limit tells only on which side of the number the result lay.

For the assay, the system named is Standard Strain H37Rv of mycobacterium tuberculosis. Kind of assay: MIC against standard strain H37Rv by Microplate Alamar Blue Assay (MABA). The conditions noted are these: M. tuberculosis H37Rv, 7H9 medium, 37° C. It is filed as cell-based. A general note: Alamar Blue is a resazurin reagent that responds to reducing activity.
Where [1] appears, read: Mycobacterium tuberculosis, H37RV, read-out: MIC.

Consider `COc1cc2ccc(Br)cc2cc1C(c1ccc(Cl)cc1)C(O)(CCN(C)C)c1cccc2ccccc12` (single isomer, unassigned) [Compound 3, 1-(4-chlorophenyl)-2-(1-naphthyl)-1-[2-(7-bromo-3-methoxy)naphthyl]-4-(N,N-dimethylamino)-butan-2-ol], for which the MIC (commonly the lowest concentration found to suppress growth) was found to be 2.883 µg/mL (≈ 4.89 µM).
The compound `COc1cc2ccccc2cc1C(c1ccc(Cl)cc1)C(O)(CCN(C)C)c1cccc2ccccc12` (single isomer, unassigned) [Compound 5, 1-(4-chlorophenyl)-2-(1-naphthyl)-1-[2-(3-methoxy)naphthyl]-4-(N,N-dimethylamino)-butan-2-ol] showed an MIC of 3.052 µg/mL (≈ 5.98 µM).
As to `COc1cc2ccccc2cc1C(c1ccc(Cl)cc1)C(O)(CCN(C)C)c1cccc2ccccc12` (single isomer, unassigned) [Compound 6, 1-(4-chlorophenyl)-2-(1-naphthyl)-1-[2-(3-methoxy)naphthyl]-4-(N,N-dimethylamino)-butan-2-ol], the MIC came out at 1.454 µg/mL (≈ 2.85 µM).
As for `COc1cc2ccccc2cc1C(c1ccccc1)C(O)(CCN(C)C)c1cccc2ccccc12` (stereo not drawn) [Compound 1, 1-phenyl-2-(1-naphthyl)-1-[2-(3-methoxy)-naphthyl]-4-(N,N-dimethylamino)-butan-2-ol], the MIC under setting [1] turned out to be 2.05 µg/mL (≈ 4.3 µM).
With `COc1cc2ccccc2cc1C(c1ccccc1)C(O)(CCN(C)C)c1cccc2ccccc12` (stereo not drawn) [Compound 2, 1-phenyl-2-(1-naphthyl)-1-[2-(3-methoxy)-naphthyl]-4-(N,N-dimethylamino)-butan-2-ol], the MIC is 3.178 µg/mL (≈ 6.68 µM).
With `COc1cc2ccc(Br)cc2cc1C(c1ccc(Cl)cc1)C(O)(CCN(C)C)c1ccc(Br)cc1` (stereo not drawn) [Compound 7, 1-(4-chlorophenyl)-2-(4-bromophenyl)-1-[2-(7-bromo-3-methoxy)naphthyl]-4-(N,N-dimethylamino)-butan-2-ol], the MIC under setting [1] is 1 µg/mL (≈ 1.62 µM).
For `COc1cc2ccc(Br)cc2cc1C(c1ccc(Cl)cc1)C(O)(CCN(C)C)c1ccc(Br)cc1` (stereo not drawn) [Compound 8, 1-(4-chlorophenyl)-2-(4-bromophenyl)-1-[2-(7-bromo-3-methoxy)naphthyl]-4-(N,N-dimethylamino)-butan-2-ol], the MIC turned out to be 0.956 µg/mL (≈ 1.55 µM).
As for `COc1cc2ccc(Br)cc2cc1C(c1ccccc1)C(O)(CCN(C)C)c1ccc(Br)cc1` (stereo not drawn) [Compound 9, 1-phenyl-2-(4-bromophenyl)-1-[2-(7-bromo-3-methoxy)naphthyl]-4-(N,N-dimethylamino)-butan-2-ol], the MIC stood at 0.118 µg/mL (≈ 0.202 µM).
`COc1cc2ccc(Br)cc2cc1C(c1ccccc1)C(O)(CCN(C)C)c1ccc(Br)cc1` (stereo not drawn) [Compound 10, 1-phenyl-2-(4-bromophenyl)-1-[2-(7-bromo-3-methoxy)naphthyl]-4-(N,N-dimethylamino)-butan-2-ol] showed an MIC of 2.000 µg/mL (≈ 3.43 µM).
On the same count and under the same terms, to `COc1cc2ccc(Br)cc2cc1C(c1ccccc1)C(O)(CCN(C)C)c1cccc(Br)c1` (stereo not drawn) [Compound 11, 1-phenyl-2-(3-bromophenyl)-1-[2-(7-bromo-3-methoxy)naphthyl]-4-(N,N-dimethylamino)-butan-2-ol] belongs 0.103 µg/mL (≈ 0.177 µM); to `COc1cc2ccc(Br)cc2cc1C(c1ccccc1)C(O)(CCN(C)C)c1cccc(Br)c1` (stereo not drawn) [Compound 12, 1-phenyl-2-(3-bromophenyl)-1-[2-(7-bromo-3-methoxy)naphthyl]-4-(N,N-dimethylamino)-butan-2-ol], 1.000 µg/mL (≈ 1.71 µM).
As to `COc1cc2ccccc2cc1C(c1ccc(Cl)cc1)C(O)(CCN(C)C)c1ccc(F)cc1F` (stereo not drawn) [Compound 13, 1-(4-chlorophenyl)-2-(2,4-difluorophenyl)-1-[2-(3-methoxy)naphthyl]-4-(N,N-dimethylamino)-butan-2-ol], the MIC under setting [1] worked out at 1 µg/mL (≈ 2.02 µM).
As to `COc1cc2ccc(Br)cc2cc1C(c1ccc(Cl)cc1)C(O)(CCN(C)C)c1cccc(Br)c1` (stereo not drawn) [Compound 15, 1-(4-chlorophenyl)-2-(3-bromophenyl)-1-[2-(7-bromo-3-methoxy)naphthyl]-4-(N,N-dimethylamino)-butan-2-ol], the MIC is 2.166 µg/mL (≈ 3.51 µM).
Same read-out and setting: with `COc1cc2ccc(Br)cc2cc1C(c1ccc(Cl)cc1)C(O)(CCN(C)C)c1ccccc1` (stereo not drawn) [Compound 17, 1-(4-chlorophenyl)-2-phenyl-1-[2-(7-bromo-3-methoxy)naphthyl]-4-(N,N-dimethylamino)-butan-2-ol] the figure was 2.000 µg/mL (≈ 3.71 µM); with `COc1cc2ccc(Br)cc2cc1C(c1ccc(Cl)cc1)C(O)(CCN(C)C)c1ccccc1` (stereo not drawn) [Compound 18, 1-(4-chlorophenyl)-2-phenyl-1-[2-(7-bromo-3-methoxy)naphthyl]-4-(N,N-dimethylamino)-butan-2-ol], 0.109 µg/mL (≈ 0.202 µM); with `COc1cc2ccc(Br)cc2cc1C(c1ccccc1)C(O)(CCN(C)C)c1ccccc1` (stereo not drawn) [Compound 19, 1,2-diphenyl-1-[2-(7-bromo-3-methoxy)naphthyl]-4-(N,N-dimethylamino)-butan-2-ol], 0.206 µg/mL (≈ 0.408 µM).
`COc1cc2ccc(Br)cc2cc1C(c1ccccc1)C(O)(CCN(C)C)c1ccccc1` (stereo not drawn) [Compound 20, 1,2-diphenyl-1-[2-(7-bromo-3-methoxy)naphthyl]-4-(N,N-dimethylamino)-butan-2-ol] gave an MIC of 2.000 µg/mL (≈ 3.96 µM).
The compound `COc1cc2ccc(Br)cc2cc1C(c1ccc(Cl)cc1)C(O)(CCN(C)C)c1ccccc1Br` (stereo not drawn) [Compound 21, 1-(4-chlorophenyl)-2-(2-bromophenyl)-1-[2-(7-bromo-3-methoxy)naphthyl]-4-(N,N-dimethylamino)-butan-2-ol] had an MIC of 2.000 µg/mL (≈ 3.24 µM).
`COc1cc2ccc(Br)cc2cc1C(c1ccc(Cl)cc1)C(O)(CCN(C)C)c1ccccc1Br` (stereo not drawn) [Compound 22, 1-(4-chlorophenyl)-2-(2-bromophenyl)-1-[2-(7-bromo-3-methoxy)naphthyl]-4-(N,N-dimethylamino)-butan-2-ol]: the MIC amounted to 0.111 µg/mL (≈ 0.18 µM).
Same read-out and setting: to `COc1cc2ccc(Br)cc2cc1C(c1ccccc1)C(O)(CCN(C)C)c1ccccc1Br` (stereo not drawn) [Compound 23, 1-phenyl-2-(2-bromophenyl)-1-[2-(7-bromo-3-methoxy)naphthyl]-4-(N,N-dimethylamino)-butan-2-ol] belongs above 32 µg/mL; to `COc1cc2ccc(Br)cc2cc1C(c1ccccc1)C(O)(CCN(C)C)c1ccccc1Br` (stereo not drawn) [Compound 24, 1-phenyl-2-(2-bromophenyl)-1-[2-(7-bromo-3-methoxy)naphthyl]-4-(N,N-dimethylamino)-butan-2-ol], 0.224 µg/mL (≈ 0.384 µM); to `COc1cc2ccc(Br)cc2cc1C(c1ccccc1)C(O)(CCN(C)C)c1cccc2ccccc12` (stereo not drawn) [Compound 26, 1-phenyl-2-(1-naphthyl)-1-[2-(7-bromo-3-methoxy)naphthyl]-4-(N,N-dimethylamino)-butan-2-ol], 1.977 µg/mL (≈ 3.57 µM).
In turn, `COc1cc2ccc(Br)cc2cc1C(c1ccc(C)cc1)C(O)(CCN(C)C)c1cccc2ccccc12` (stereo not drawn) [Compound 29, 1-(4-methylphenyl)-2-(1-naphthyl)-1-[2-(7-bromo-3-methoxy)naphthyl]-4-(N,N-dimethylamino)-butan-2-ol] registered an MIC of 0.222 µg/mL (≈ 0.39 µM).
Turning to `COc1c(C(c2ccccc2)C(O)(CCN(C)C)c2cccc3ccccc23)cc2cc(Br)ccc2c1Br` (stereo not drawn) [Compound 31, 1-phenyl-2-(1-naphthyl)-1-[2-(4,7-dibromo-3-methoxy)naphthyl]-4-(N,N-dimethylamino)-butan-2-ol], the MIC turned out to be 0.124 µg/mL (≈ 0.196 µM).
Take `COc1c(C(c2ccccc2)C(O)(CCN(C)C)c2cccc3ccccc23)cc2cc(Br)ccc2c1Br` (stereo not drawn) [Compound 32, 1-phenyl-2-(1-naphthyl)-1-[2-(4,7-dibromo-3-methoxy)naphthyl]-4-(N,N-dimethylamino)-butan-2-ol]: the MIC was found to be 1.000 µg/mL (≈ 1.58 µM).
Turning to `CN(C)CCC(O)(c1cccc2ccccc12)C(c1ccccc1)c1cc2cc(Br)ccc2c(Br)c1O` (stereo not drawn) [Compound 33, 1,6-dibromo-3-[1-phenyl 2-(1-naphthyl)-2-hydroxy-4-(N,N-dimethylamino)]butyl-2-naphthol], the minimum inhibitory concentration (MIC) is 1.000 µg/mL (≈ 1.61 µM).
The compound `CN(C)CCC(O)(c1cccc2ccccc12)C(c1ccccc1)c1cc2cc(Br)ccc2c(Br)c1O` (stereo not drawn) [Compound 34, 1,6-dibromo-3-[1-phenyl 2-(1-naphthyl)-2-hydroxy-4-(N,N-dimethylamino)]butyl-2-naphthol] returned an MIC of 4.000 µg/mL (≈ 6.46 µM).
The compound `COc1cc2ccc(Br)cc2cc1C(c1cccc(Cl)c1)C(O)(CCN(C)C)c1cccc2ccccc12` (stereo not drawn) [Compound 35, 1-(3-chlorophenyl)-2-(1-naphthyl)-1-[2-(7-bromo-3-methoxy)naphthyl]-4-(N,N-dimethylamino)-butan-2-ol] yielded an MIC of 0.114 µg/mL (≈ 0.194 µM).
In turn, `COc1cc2ccc(Br)cc2cc1C(c1cccc(Cl)c1)C(O)(CCN(C)C)c1cccc2ccccc12` (stereo not drawn) [Compound 36, 1-(3-chlorophenyl)-2-(1-naphthyl)-1-[2-(7-bromo-3-methoxy)naphthyl]-4-(N,N-dimethylamino)-butan-2-ol] displayed an MIC of 3.773 µg/mL (≈ 6.41 µM).
Take `COc1cc2ccc(Br)cc2cc1C(c1cccc(C)c1)C(O)(CCN(C)C)c1cccc2ccccc12` (stereo not drawn) [Compound 37, 1-(3-methylphenyl)-2-(1-naphthyl)-1-[2-(7-bromo-3-methoxy)naphthyl]-4-(N,N-dimethylamino)-butan-2-ol]: the MIC was 0.180 µg/mL and 0.258 µg/mL.
